Data on one compound can be found in publication PMC5054363 (Scientific Reports, 2016).

In experiment [1] the target is eEF1A2 purified from rabbit muscle (Oryctolagus cuniculus, UniProt Q71V39). The settings on record: saturation binding, Swillens fit. The procedure: (A) Saturation binding curve. Protein and radioligand were incubated for 1 h at room temperature and samples were processed as described in the text. […] The experiment was performed as described in the text, and the experimental points were fitted to a single exponential decay equation by non-linear regression. […] Extracts were then digested with the indicated concentrations of subtilisin for 30 min at room temperature. Samples were resolved by SDS-PAGE and the degradation of eEF1A2 analyzed by Western blot; quantitation of the bands from the DARTS assay was performed with the ImageJ software.

A further experiment concerns human leukemic cells. The settings on record: cited from earlier work. The text has this:
The high affinity of this interaction is in consonance with the nanomolar antiproliferative potency of this compound, also observed in many previous reports (for a review see ref. [10]).

Experiment [2] concerns JNK and p38 MAPK, oxidative stress in tumor cells. The settings on record: cited from earlier work. An excerpt: (§1) Plitidepsin (Aplidin) is a cyclic depsipeptide originally isolated from the marine tunicate Aplidium albicans. […] Plitidpesin has recently completed a pivotal phase III clinical trial for multiple myeloma (clinicaltrials.gov identifier: NCT01102426) that has shown a statistically significant 35% reduction in the risk of progression or death over the comparator (p = 0.0054). This study has met its primary endpoint. In tumor cells, the compound induces a potent oxidative stres ...

For experiment [3], the system named is multiple myeloma patients. As to conditions: phase III, p = 0.0054, ref clinicaltrials.gov NCT01102426; cited from earlier work.
Excerpt: as §1

The conditions of experiment [4]: two different COMPARE analyses, no reference given; cited from earlier work.
Excerpt: as §1

Experiment [5] has as its system p38, ERK and JNK phosphorylation in HeLa-APL-R cells expressing eEF1A2-GFP. Briefly: Signaling (Western blot) in HeLa-APL-R expressing eEF1A2-GFP. The format is cell-based, human. The settings on record: plitidepsin 450 nM. The procedure:
(§2) (A) HeLa and HeLa-APL-R cells were stably transfected with an expression vector encoding for eEF1A2-GFP fusion protein. Clones homogeneously expressing the GFP were selected. The levels of expression of eEF1A2 were analyzed by Western blot using specific antibodies. The position of the endogenous and the GFP-fusion proteins are indicated. […] Levels of expression attained after transfection were similar to the endogenous levels. […] Concentration-response curves were performed at 72 h. Cell growth was determined by the MTT method and expressed as percentage of control cell survival.
(§3) For transfection and selection of cell clones, HeLa and HeLa-APL-R cells were seeded in 24 well plates at 40% confluence and allowed to stand for 24 hours at 37 °C and 5% CO2. Before transfection, the culture medium was changed to Opti-MEM (Life Technologies, Carlsbad, CA, USA). Plasmids encoding eEF1A2-GFP were incubated with Lipofectamine (Life Technologies, Carlsbad, CA, USA) under the recommendations of the manufacturer and added to the cell medium. After 24 h incubation at 37 °C and 5% CO2, the culture medium was replaced by the standard DMEM supplemented with 2 mg/ml of G-418 for the selection of clones expressing the exogenous gene. Clones were further selected following the expression of the GFP-fused protein through fluorescence microscopy.

The subject of experiment [6] is NCI-H460-APL-R non-small cell lung cancer cells (plitidepsin-resistant). Kind of experiment: Cell growth inhibition (MTT, 72 h), NCI-H460-APL-R. It is filed as cell-based. As to conditions: highest concentration tested 100 nM.
Experiment [7] relates to HeLa-APL-R cells stably transfected with eEF1A2-GFP. Kind of experiment: Antiproliferative activity in HeLa-APL-R stably transfected with eEF1A2-GFP. The format is cell-based, human. As to conditions: 72 h, MTT. On the procedure:
as §2, §3

Experiment [8] concerns human haploid cells with eEF1A2 knock-out. As to conditions: CRISPR/CAS9, versus parental cells, data not shown, results not conclusive.
For experiment [9], the system named is HeLa cervical cancer cells. The arrangement: method as in PMID 15365569. The settings on record: HeLa parental cells, 72 h, Fig. 1A; reported as previously described; cited from earlier work.
Experiment [10] relates to signaling events in HeLa-APL-R cells. As to conditions: HeLa-APL-R versus parental HeLa; cited from earlier work. An excerpt:
In contrast, HeLa cells ectop ...

The test system of experiment [11] is signaling in HeLa cells overexpressing eEF1A2-GFP. Briefly: Signaling (Western blot) in HeLa overexpressing eEF1A2-GFP. It is filed as cell-based, human. The settings on record: plitidepsin 450 nM. On the procedure: as §2, §3
Experiment [12] concerns three tumor cell lines selected for resistance to plitidepsin. The procedure:
In all cases eEF1A2 protein levels were analyzed by Western Blot as shown in the right hand side of each graph. ● wild type cells, ○ APL-R cells.
HeLa cervix adenocarcinoma (ATCC CCL-2), K-562 chronic myelogenous leukemia (ATCC CCL-243), NCI-H460 lung cancer (ATCC HTB-177) and HGC27 gastric cancer (ATCC CRL-2506) cells were obtained from ATCC (Manassas, VA, USA) and cultured following standard procedures. Viability assays were performed utilizing 3-(4,5-dimethylthiazol-2-yl)-2,5-diphenyltetrazolium bromide (MTT) according to methods described elsewhere.

The subject of experiment [13] is CHRM4 (M4 muscarinic acetylcholine receptor). Kind of experiment: PathHunter acetylcholine-mediated CHRM4 activation. It is filed as cell-based. The settings on record: CHO-transfected cell line, preliminary, data not shown. The text has this: (§4) For example, it is known that eEF1A is able to directly increase the activity of sphingosine kinase-1 (SK1), an effect that is related to oncogenesis. […] The hijacking of eEF1A with the consequent reduction of SK1 activity has already been described as a biological mechanism in dengue virus type-2 infected cells. Another example is the specific binding of eEF1A2 to the i3 loop of M4, but not M1, muscarinic acetylcholine receptor[40]. This direct interaction with M4 regulates its cell membrane density and activity. […] This is due to a specific interaction of eEF1A with aberrant polypeptides named defective ribosomal products (DRiPs) that are ligated to multi-ubiquitin chains following translation damage; eEF1A also plays a role in sensing DRiP accumulation when the proteasome is inhibited.

Experiment [14] relates to CHRM1 (M1 muscarinic acetylcholine receptor). Kind of experiment: PathHunter CHRM1 activation. The format is cell-based. The settings on record: data not shown.
Excerpt: as §4

“Also recorded” adds a separate entry of the source. *1 amine or outer side, *2 acyl side, *3 side chain or, on linkers, in order; H or OH if unused. Where a SMILES comes first, the peptide text is derived from it. Bridges are numbered along the chain shown (N, C = ends). [ ]: non-standard residue; d: D form. The star is where a group is joined. X1 = CC[C@H](C)[C@@H](N[*:1])[C@@H](O)CC(=O)O[C@H](C(=O)[C@H](C)C(=O)[*:2])C(C)C; NMeY = CN[C@@H](Cc1ccc(O)cc1)C(=O)O; dNMeL = CN[C@H](CC(C)C)C(=O)O; Pyruvoyl = CC(=O)C(=O)*

Chain of eEF1A2 purified from rabbit muscle (Q71V39 whole entry): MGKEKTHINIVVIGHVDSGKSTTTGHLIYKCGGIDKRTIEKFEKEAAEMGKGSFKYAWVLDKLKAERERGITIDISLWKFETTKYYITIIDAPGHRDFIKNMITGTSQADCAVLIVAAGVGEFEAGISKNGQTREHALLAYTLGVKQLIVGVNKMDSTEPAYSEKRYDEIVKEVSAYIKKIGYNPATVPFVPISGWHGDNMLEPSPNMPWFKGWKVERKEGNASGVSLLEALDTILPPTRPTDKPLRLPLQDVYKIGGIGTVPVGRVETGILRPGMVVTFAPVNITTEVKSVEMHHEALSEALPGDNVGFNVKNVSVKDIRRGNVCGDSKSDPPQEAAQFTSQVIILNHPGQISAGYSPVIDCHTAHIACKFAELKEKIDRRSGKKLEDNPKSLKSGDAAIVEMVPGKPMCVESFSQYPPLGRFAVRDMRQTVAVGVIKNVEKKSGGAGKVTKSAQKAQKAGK

`CC[C@H](C)[C@H]1NC(=O)[C@@H](NC(=O)[C@@H](CC(C)C)N(C)C(=O)[C@@H]2CCCN2C(=O)C(C)=O)[C@@H](C)OC(=O)[C@H](Cc2ccc(OC)cc2)N(C)C(=O)[C@@H]2CCCN2C(=O)[C@H](CC(C)C)NC(=O)[C@@H](C)C(=O)[C@H](C(C)C)OC(=O)C[C@@H]1O` [plitidepsin, Plitidepsin] (Pyruvoyl-P[dNMeL]T[X1]LP[NMeY](Me); ester 3-C (inferred)) had a Kd in [1] ([14C]-plitidepsin 0.1 to 4 μM, 100 nM rabbit eEF1A2, 1 μM Gpp(NH)p, pH 7.5, 5% DMSO, 1 h, room temperature, filtration, triplicate) of 0.079 ± 0.03 µM. Besides, in [1] ([14C]-plitidepsin, 1 h, room temperature), the Bmax is given as 0.7 mol per mol of protein. For the same compound, the “alpha (ratio between non-specifically bound ligand and free ligand)” value in experiment [1] ([14C]-plitidepsin) is recorded as 0.014 ± 0.0005. In the experiment on human leukemic cells (10 nM plitidepsin, actin-binding agents), the “effect of cytochalasin B and jasplakinolide pretreatment on apoptotic response” value is “prevented”. Further, the “effect of cycloheximide pretreatment on apoptotic response” value with human leukemic cells (10 nM plitidepsin, cycloheximide at concentrations that inhibit protein synthesis) is “not to be affected”. Moreover, the apoptotic response result in the experiment with human leukemic cells (human leukemic cells, 10 nM) is “fast and complete apoptotic response”. In experiment [2], the “activation of JNK and p38” value was “rapid and sustained activation”; the oxidative stress entry was “potent oxidative stress”. The “reduction in the risk of progression or death over the comparator” value in [3] was 35%. In addition, in [4], the “similarity with other antitumor agents” value is “no similarity with any other antitumor agent”. Further, the “phosphorylation of p38, ERK and JNK” value in [5] was “led to phosphorylation of p38, ERK and JNK”. In experiment [6], the “effect on cell growth” value is reported as “did not cause any effect on cell growth”. For the same compound, in experiment [7], the “sensitivity to plitidepsin after ectopic expression of eEF1A2” value is “partially recovered sensitivity; also recorded: restored the sensitivity”. Further, the “resistance of eEF1A2 knock-out cells to plitidepsin” value in experiment [8] was “increased resistance”. The IC50 in experiment [9] was 0.001 µM. In addition, the “signaling events triggered by plitidepsin” value in experiment [10] is “completely lost”. Moreover, the “alteration in the signaling elicited by plitidepsin” value in experiment [11] was “did not show any alteration in the signaling”. Moreover, the “fold resistance to plitidepsin versus parental cells” value in experiment [12] was “at least 100 fold”. Moreover, the “decrease of acetylcholine-mediated CHRM4 activation” value in experiment [13] turned out to be 55%. Also, in [14], the “effect on CHRM1” value is “did not affect CHRM1”.
